From patent publication US20090111801A1, “SUBSTITUTED PYRAZINONE DERIVATIVES FOR USE AS A MEDICINE” (Janssen Pharmaceutica N.V., priority 2006, published 2009)

Tests used:
hα2A receptor = target: T1, hα2A receptor (Homo sapiens, UniProt P08913); assay: Radioligand binding experiment for α2A-adrenoceptor ([3H]raulwolscine, CHO cell membranes); conditions: [3H]raulwolscine binding; for IC50: read-out: h-α2A pIC50 (converted)
T1 construct: expressed in transfected cells; host or cells: CHO cells, stably transfected; membrane preparation
T1 sequence (P08913 1-465): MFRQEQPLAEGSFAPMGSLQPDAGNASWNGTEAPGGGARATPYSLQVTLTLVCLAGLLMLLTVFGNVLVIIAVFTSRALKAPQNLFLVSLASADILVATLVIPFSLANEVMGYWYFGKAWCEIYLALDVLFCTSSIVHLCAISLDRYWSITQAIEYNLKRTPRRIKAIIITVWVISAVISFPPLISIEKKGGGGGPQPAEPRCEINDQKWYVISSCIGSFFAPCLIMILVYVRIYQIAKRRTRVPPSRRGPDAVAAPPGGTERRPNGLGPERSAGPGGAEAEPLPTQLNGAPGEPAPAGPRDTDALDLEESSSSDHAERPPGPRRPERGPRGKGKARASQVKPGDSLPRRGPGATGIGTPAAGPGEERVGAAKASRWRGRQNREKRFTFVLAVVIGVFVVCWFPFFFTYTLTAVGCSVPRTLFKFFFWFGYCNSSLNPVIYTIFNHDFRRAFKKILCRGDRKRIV
Protocol: (§1) The interaction of a compound of Formula (I) with α2-adrenoceptor receptors was assessed in in vitro radioligand binding experiments. In general, a low concentration of a radioligand with a high binding affinity for a particular receptor or transporter is incubated with a sample of a tissue preparation enriched in a particular receptor or transporter or with a preparation of cells expressing cloned human receptors in a buffered medium. During the incubation, the radioligand binds to the receptor or transporter. When equilibrium of binding is reached, the receptor bound radioactivity is separated from the non-bound radioactivity, and the receptor- or transporter-bound activity is counted. The interaction of the test compounds with the receptor is assessed in competition binding experiments. Various concentrations of the test compound are added to the incubation mixture containing the receptor- or transporter preparation and the radioligand. The test compound in proportion to its binding affinity and its concentration inhibits binding of the radioligand. The radioligand used for hα2A and hα2C receptor binding was [^3H]-raulwolscine.
(§2) CHO cells, stabile transfected with human adrenergic-α2A and α2C receptor cDNA, were cultured in Dulbecco's Modified Eagle's Medium (DMEM)/Nutrient mixture Ham's F12 (ratio 1:1)(Gibco, Gent-Belgium) supplemented with 10% heat inactivated fetal calf serum (Life Technologies, Merelbeke-Belgium) and antibiotics (100 IU/ml penicillin G, 100 μg/ml streptomycin sulphate, 110 μg/ml pyruvic acid and 100 μg/ml L-glutamine). One day before collection, cells were induced with 5 mM sodiumbutyrate. Upon 80-90% of confluence, cells were scraped in phosphate buffered saline without Ca^2+ and Mg^2+ and collected by centrifugation at 1500×g for 10 minutes. The cells were homogenised in Tris-HCl 50 mM using an Ultraturrax homogenizer and centrifuged for 10 minutes at 23,500×g. The pellet was washed once by resuspension and rehomogenization and the final pellet was resuspended in Tris-HCl, divided in 1 ml aliquots and stored at −70° C.
(§3) Membranes were thawed and re-homogenized in incubation buffer (glycylglycine 25 mM, pH 8.0). […] Filters were rinsed extensively with ice-cold rinsing buffer (Tris-HCl 50 mM pH 7.4). Filter-bound radioactivity was determined by scintillation counting in a Topcount (Packard, Meriden, Conn.) and results were expressed as counts per minute (cpm). Non-specific binding was determined in the presence of 1 μM oxymetazoline for the hα2A receptor and 1 μM spiroxatrine for hα2C receptor.
(§4) Data from assays in the presence of compound were calculated as a percentage of total binding measured in the absence of test compound. Inhibition curves, plotting percent of total binding versus the log value of the concentration of the test compound, were automatically generated, and sigmoidal inhibition curves were fitted using non-linear regression. The pIC50 values of test compounds were derived from individual curves.

hα2C receptor = target: T2, hα2C receptor (Homo sapiens, UniProt P18825); assay: Radioligand binding experiment for α2C-adrenoceptor ([3H]raulwolscine, CHO cell membranes); conditions: [3H]raulwolscine binding; for IC50: read-out: h-α2C pIC50 (converted)
T2 construct: expressed in transfected cells; host or cells: CHO cells, stably transfected; membrane preparation
T2 sequence (P18825 1-462): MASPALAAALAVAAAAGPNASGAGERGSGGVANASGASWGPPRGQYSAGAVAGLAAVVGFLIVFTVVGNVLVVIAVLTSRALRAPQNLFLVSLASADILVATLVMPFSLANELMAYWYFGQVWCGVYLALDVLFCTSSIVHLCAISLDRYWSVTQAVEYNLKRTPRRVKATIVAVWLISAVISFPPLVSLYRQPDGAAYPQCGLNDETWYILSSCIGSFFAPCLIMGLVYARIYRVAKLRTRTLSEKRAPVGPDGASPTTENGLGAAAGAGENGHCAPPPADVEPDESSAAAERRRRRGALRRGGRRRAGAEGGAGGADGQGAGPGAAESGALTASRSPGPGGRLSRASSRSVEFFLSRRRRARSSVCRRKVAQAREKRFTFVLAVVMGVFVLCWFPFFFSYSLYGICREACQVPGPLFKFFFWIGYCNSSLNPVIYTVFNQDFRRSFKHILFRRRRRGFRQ
Protocol: as §1, §2, §3, §4

5HT-Transporter = target: T3, 5HT-Transporter (Homo sapiens, UniProt P31645); assay: Binding experiment for the 5HT-transporter ([3H]paroxetine, human platelet membranes); conditions: [3H]paroxetine 0.5 nM; for IC50: read-out: h-5HTT pIC50 (converted)
T3 construct: Human platelet membranes (Oceanix Biosciences Corporation, Hanover, Md., USA) were thawed; tissue Oceanix Biosciences Corporation, Hanover, Md., USA; host or cells: human platelet membranes
T3 sequence (P31645 whole entry): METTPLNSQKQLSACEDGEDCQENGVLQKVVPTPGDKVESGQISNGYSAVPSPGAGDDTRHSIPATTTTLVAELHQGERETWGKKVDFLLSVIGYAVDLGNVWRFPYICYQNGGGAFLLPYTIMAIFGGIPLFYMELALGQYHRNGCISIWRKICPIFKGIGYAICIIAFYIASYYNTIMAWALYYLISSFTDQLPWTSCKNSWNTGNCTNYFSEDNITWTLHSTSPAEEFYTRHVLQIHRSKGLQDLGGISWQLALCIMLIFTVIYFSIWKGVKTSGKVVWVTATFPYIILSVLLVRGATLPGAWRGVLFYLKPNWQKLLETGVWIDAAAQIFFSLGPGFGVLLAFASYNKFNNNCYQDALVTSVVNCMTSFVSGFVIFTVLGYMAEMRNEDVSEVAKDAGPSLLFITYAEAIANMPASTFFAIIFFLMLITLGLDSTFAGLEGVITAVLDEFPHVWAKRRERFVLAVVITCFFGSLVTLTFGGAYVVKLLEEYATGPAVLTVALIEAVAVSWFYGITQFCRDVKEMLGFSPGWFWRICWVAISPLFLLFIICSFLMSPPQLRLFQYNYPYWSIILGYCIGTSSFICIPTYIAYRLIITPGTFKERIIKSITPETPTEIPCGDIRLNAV
Protocol: as §1
Human platelet membranes (Oceanix Biosciences Corporation, Hanover, Md., USA) were thawed, diluted in buffer (Tris-HCl 50 mM, 120 mM NaCl and 5 mM KCl) and quickly (max 3 s) homogenised with an Ultraturrax homogenizer. […] Incubation was stopped by rapid filtration of the incubation mixture over GF/B filters, pre-wetted with 0.1% polyethyleneamine, using a Filtermate196 harvester (Packard, Meriden, Conn.). Filters were rinsed extensively with ice-cold buffer and radioactivity on the filters was counted in a Topcount liquid scintillation counter (Packard, Meriden, Conn.). Data were expressed as cpm. Imipramine (at 1 μM final concentration) was used to determine the non-specific binding.
as §4

SMILES	IC50 (hα2A receptor)	IC50 (hα2C receptor)	IC50 (5HT-Transporter)	h-α2A pIC50 (hα2A receptor)	h-α2C pIC50 (hα2C receptor)	h-5HTT pIC50 (5HT-Transporter)
C/C(=C\c1ccccc1)CN1CCC(Nc2nccn(-c3ccc(C=O)cc3)c2=O)CC1 [5-6]	39.8 nM	6.31 nM	2000 nM			
C/C(=C\c1ccccc1)CN1CCC(N(C)c2nccn(CC3CCCCO3)c2=O)CC1 (stereo not drawn) [15-7]	79.4 nM	39.8 nM	3160 nM			
C/C(=C\c1ccccc1)CN1CCC(Nc2nccn(CN3C(=O)c4ccccc4C3=O)c2=O)CC1 [2-48]	31.6 nM	6.31 nM	158 nM			
CC(C)(C)C(=O)Cn1ccnc(NC2CCN(C/C=C/c3ccccc3)CC2)c1=O [16-25]	1000 nM	158 nM	> 10000 nM			
C/C(=C\c1ccccc1)CN1CCC(N(C)c2nccn(Cc3ccc(CN)cc3)c2=O)CC1 [15-1]	25.1 nM	10 nM	501 nM			
CCCC(=O)NCCCn1ccnc(NC2CCN(C/C(C)=C/c3ccccc3)CC2)c1=O [1-32]	200 nM	12.6 nM	2510 nM			
C/C(=C\c1ccccc1)CN1CCC(Nc2nccn(-c3cccc(NC(=O)c4cccc(F)c4)c3)c2=O)CC1 [1-76]	20 nM	31.6 nM	126 nM			
COCCCNC(=O)Cn1ccnc(NC2CCN(C/C(C)=C/c3ccccc3)CC2)c1=O [1-23]	200 nM	6.31 nM	2510 nM			
CCn1ccnc(NC2CCN(C/C(C)=C/c3ccccc3)CC2)c1=O [7-3]	63.1 nM	15.8 nM	3980 nM			
C/C(=C\c1ccccc1)CN1CCN(c2nccn(CCN3CCOCC3)c2=O)CC1 [9-2]	1000 nM	200 nM	7940 nM			
C/C(=C\c1ccccc1)CN1CCC(Nc2nccn(CC(=O)N3CCN(C(=O)C4CCCO4)CC3)c2=O)CC1 (stereo not drawn) [2-38]	158 nM	39.8 nM	7940 nM			
CCOC(=O)N1CCN(Cc2cccc(-n3ccnc(NC4CCN(C/C(C)=C/c5ccccc5)CC4)c3=O)c2)CC1 [2-36]	100 nM	10 nM	1580 nM			
CCN(CC)c1cccc(-n2ccnc(NC3CCN(C/C(C)=C/c4ccccc4)CC3)c2=O)c1 [1-17]	5.01 nM	1.58 nM	1000 nM			
CSCCn1ccnc(N2CCN(C/C(C)=C/c3ccccc3)CC2)c1=O [11-1]	316 nM	79.4 nM	6310 nM			
C/C(=C\c1ccccc1)CN1CCC(Nc2nccn(CC(=O)N(C)CCN(C)C)c2=O)CC1 [1-108]	50.1 nM	1.58 nM	6310 nM			
O=C1c2ccccc2C(=O)N1CCCn1ccnc(NC2CCN(C/C=C/c3ccccc3)CC2)c1=O [16-8]	501 nM	12.6 nM	200 nM			
C/C(=C\c1ccccc1)CN1CCC(Nc2nccn(-c3ccc(CO)cc3)c2=O)CC1 [3-3]				6.8	7.8	5.2
C/C(=C\c1ccccc1)CN1CCC(Nc2nccn(Cc3ccc(CNC(=O)Cc4ccccc4)cc3)c2=O)CC1 [1-82]	79.4 nM	25.1 nM	251 nM			
